Marks after values point to notes of the source that are not given here.
Test: Plasma pharmacokinetics
Format: in vivo, human
Settings: for clearance / AUC(0-inf) / MRT / Vd: human, plasma, iv; for AUC0–∞,norm / Cmax,norm / AUC0–168,norm: gMean, dose normalised
[1] = schedule A, 100 mg (n=3), first 2-h i.v. infusion
[2] = schedule A, 200 mg (n=3), first 2-h i.v. infusion
[3] = schedule A, 250 mg (n=5), first 2-h i.v. infusion
[4] = schedule A, 300 mg (n=16), first 2-h i.v. infusion

CC[C@@H]1C(=O)N(C)c2cnc(Nc3ccc(C(=O)N[C@H]4CC[C@H](N5CCN(CC6CC6)CC5)CC4)cc3OC)nc2N1C(C)C [volasertib]
apparent terminal half-life (t1/2) (2-h i.v. infusion, summary across doses): 135 h | clearance: > 770 mL/min | AUC(0-inf) (100 mg): 2140 ng·h/mL | MRT (100 mg): 163 h | Vd (100 mg): 7600 L | clearance (100 mg): 780 mL/min | AUC(0-inf) (200 mg): 3280 ng·h/mL | MRT (200 mg): 98.2 h | Vd (200 mg): 5980 L | clearance (200 mg): 1020 mL/min | AUC(0-inf) (250 mg): 6140 ng·h/mL | MRT (250 mg): 109 h | Vd (250 mg): 4440 L | clearance (250 mg): 679 mL/min | AUC(0-inf) (300 mg): 6260 ng·h/mL | MRT (300 mg): 103 h | Vd (300 mg): 4920 L | clearance (300 mg): 798 mL/min | AUC(0-inf) (350 mg): 9790 ng·h/mL | MRT (350 mg): 93 h | Vd (350 mg): 3320 L | clearance (350 mg): 596 mL/min | elimination route (low exposures of main metabolite, data not shown): primarily eliminated unchanged | AUC0–∞,norm [1]: 21.4 ng·h/mL/mg | Cmax,norm [1]: 1.86 ng/mL/mg | AUC0–∞,norm [2]: 16.4 ng·h/mL/mg | Cmax,norm [2]: 2.70 ng/mL/mg | AUC0–∞,norm [3]: 24.6 ng·h/mL/mg | Cmax,norm [3]: 2.16 ng/mL/mg | AUC0–∞,norm [4]: 20.9 ng·h/mL/mg | Cmax,norm [4]: 1.63 ng/mL/mg | AUC0–∞,norm (schedule A, 350 mg (n=2), first 2-h i.v. infusion): 28.0 ^a (ng h ml^−1) mg^−1 | Cmax,norm (schedule A, 350 mg (n=3), first 2-h i.v. infusion): 1.93 ng/mL/mg | AUC0–168,norm (schedule B, 50 mg (n=3), first 2-h i.v. infusion): 11.8 ^b (ng h ml^−1) mg^−1 | Cmax,norm (schedule B, 50 mg (n=4), first 2-h i.v. infusion): 2.12 ng/mL/mg | Cmax,norm (schedule B, 100 mg (n=3), first 2-h i.v. infusion): 2.34 ng/mL/mg | AUC0–168 (schedule B, 100 mg, first 2-h i.v. infusion, n=2, individual values): 1390 ng·h/mL | AUC0–168,norm (schedule B, 150 mg (n=14), first 2-h i.v. infusion): 12.6 ^d (ng h ml^−1) mg^−1 | Cmax,norm (schedule B, 150 mg (n=15), first 2-h i.v. infusion): 1.56 ng/mL/mg | AUC0–168,norm (schedule B, 200 mg (n=2), first 2-h i.v. infusion): 16.6 ^a (ng h ml^−1) mg^−1 | Cmax,norm (schedule B, 200 mg (n=3), first 2-h i.v. infusion): 2.05 ng/mL/mg | accumulation (schedule B, administration on day 1 and day 8): No accumulation

Reference: PMC4021529 (British Journal of Cancer, 2014)
